For orientation: IC50 means the concentration needed to halve the response being measured. The half-life is the time needed for the level to fall by half in the phase considered. What is called fraction unbound is the share of the substance not bound to proteins or other matrix. Read a low fraction unbound as extensive binding. Broadly, the solubility is the concentration that dissolves in the medium under given conditions. A high value points to much dissolved substance. The bioavailability is dose-corrected exposure relative to a reference, in per cent. The logD is lipophilicity at a set pH, counting ionised and neutral species. Higher therefore signals higher lipophilicity. By Papp B→A is commonly meant the apparent permeability from the basolateral to the apical side of a cell layer. As usually defined, the Papp A→B is how fast a substance crosses the layer from the apical side.

Converted amounts (≈) assume the structure as drawn.

The target in one data set is Cytochrome P450 2C19 (Homo sapiens, UniProt P33261). The experiment in a line: Inhibition of human CYP2C19. The class given is ADME.
Cytochrome P450 2C19, sequence (P33261 whole entry): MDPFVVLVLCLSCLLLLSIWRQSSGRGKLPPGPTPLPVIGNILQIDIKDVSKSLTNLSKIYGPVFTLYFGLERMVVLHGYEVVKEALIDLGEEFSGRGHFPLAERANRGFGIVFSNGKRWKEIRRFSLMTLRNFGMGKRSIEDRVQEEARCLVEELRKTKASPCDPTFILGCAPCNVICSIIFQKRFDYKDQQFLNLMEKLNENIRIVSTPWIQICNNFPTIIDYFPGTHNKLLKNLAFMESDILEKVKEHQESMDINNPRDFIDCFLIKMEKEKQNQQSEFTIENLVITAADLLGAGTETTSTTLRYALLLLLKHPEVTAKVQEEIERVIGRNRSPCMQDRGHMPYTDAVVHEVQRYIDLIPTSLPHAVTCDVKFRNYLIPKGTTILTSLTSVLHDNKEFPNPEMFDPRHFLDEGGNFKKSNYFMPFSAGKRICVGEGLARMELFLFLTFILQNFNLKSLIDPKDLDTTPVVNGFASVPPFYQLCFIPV
The species entered for data set [1] is Rattus norvegicus. Description: Toxicity in rat assessed as change in body weight after 28 days. The class given is organism-based. Conditions: in vivo, 672 h.
For a further data set, the target named is T1, Cytochrome P450 1A2 (Homo sapiens, UniProt P05177).
T1 sequence (P05177 whole entry): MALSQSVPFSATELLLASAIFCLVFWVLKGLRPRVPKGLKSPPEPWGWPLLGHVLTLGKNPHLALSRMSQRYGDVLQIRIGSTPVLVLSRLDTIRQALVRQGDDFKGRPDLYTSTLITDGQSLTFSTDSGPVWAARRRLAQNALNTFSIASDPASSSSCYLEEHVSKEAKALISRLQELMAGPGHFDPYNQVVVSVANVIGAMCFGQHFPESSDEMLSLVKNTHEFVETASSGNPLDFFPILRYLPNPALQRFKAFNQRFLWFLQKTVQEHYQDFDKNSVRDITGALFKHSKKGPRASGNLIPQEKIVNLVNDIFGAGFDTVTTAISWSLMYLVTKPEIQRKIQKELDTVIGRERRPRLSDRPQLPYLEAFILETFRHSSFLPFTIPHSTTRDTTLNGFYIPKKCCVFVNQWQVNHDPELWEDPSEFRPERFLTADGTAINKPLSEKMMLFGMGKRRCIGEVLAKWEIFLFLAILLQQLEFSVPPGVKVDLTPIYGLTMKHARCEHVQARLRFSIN
The experiment in a line: Inhibition of human CYP1A2. Type of data set: ADME.

For data set [2], the species on record is Rattus norvegicus. Description: Toxicity in rat assessed as mortality after 28 days. The class given is organism-based. The following applies: in vivo, 672 h.
Data set [3] can be described thus: Genotoxicity in mouse lymphoma cells. The class given is toxicity, cell-based.
Data set [4] in a line: Half life in rat at 2 mg/kg, iv and 5 mg/kg, po. The class given is ADME, organism-based. Conditions: in vivo.
A short description of data set [5]: Fraction unbound in rat plasma. Type of data set: ADME, cell-free.
The species named for data set [6] is Rattus norvegicus. Description: Toxicity in rat assessed as change in clinical chemistry or hematological parameters after 28 days. Conditions: in vivo, 672 h. The class given is organism-based.
Data set [7] is described as follows: Solubility of compound in fasted state simulated intestinal fluid. Type of data set: physicochemical.
The species entered for data set [8] is Rattus norvegicus. Description: Toxicity in rat assessed as change in food and water consumption after 28 days. The class given is organism-based. The following applies: in vivo, 672 h.
Data set [9] can be described thus: Clearance in rat at 2 mg/kg, iv and 5 mg/kg, po. The class given is ADME, organism-based. Conditions: in vivo.
Data set [10] in a line: Thermodynamic solubility of the compound in phosphate buffer at pH 7.4 at 25 degC after 24 hrs. Conditions: read-out: Therm_solubility.
Data set [11] in a line: Intrinsic clearance in human hepatocytes measured per 10^6 cells. Type of data set: ADME, cell-based, Hepatocyte. The following applies: read-out: CLH.
Another data set addresses Cytochrome P450 2C9 (Homo sapiens, UniProt P11712). The experiment in a line: Inhibition of human CYP2C9. The class given is ADME.
Data set [12] can be described thus: Half life in dog at 0.5 mg/kg, iv and 1 mg/kg, po. Type of data set: ADME, organism-based, Canis lupus familiaris. Conditions: in vivo.
Data set [13] is described as follows: Fraction unbound in dog plasma. Type of data set: ADME, cell-free, Canis lupus familiaris.
A short description of data set [14]: Fraction unbound in human plasma. Type of data set: ADME, cell-free.
Data set [15] is described as follows: Volume of distribution at steady state in rat at 2 mg/kg, iv and 5 mg/kg, po. Type of data set: ADME, organism-based. The following applies: in vivo, read-out: Vdss.
The species named for a further data set is Cavia porcellus. The experiment in a line: animal or person. The following applies: Dunkin Hartley, sc, 2016 h, read-out: INH.
A short description of data set [16]: Oral bioavailability in dog at 1 mg/kg. Type of data set: ADME, organism-based, Canis lupus familiaris. The following applies: in vivo.
Data set [17] in a line: in vitro. Conditions: human, liver microsomes.
Data set [18] in a line: Volume of distribution at steady state in dog at 0.5 mg/kg, iv and 1 mg/kg, po. Type of data set: ADME, organism-based, Canis lupus familiaris. The following applies: in vivo, read-out: Vdss.
The species entered for data set [19] is Rattus norvegicus. Description: Toxicity in rat assessed as fibrodysplasia after 28 days. The class given is organism-based. The following applies: in vivo, 672 h.
A further data set in a line: physchem. Conditions: buffer, pH 7.4.
A short description of data set [20]: Apparent permeability across basolateral to apical side in human Caco2 cells at 10 uM. The class given is ADME, cell-based. The following applies: Caco-2. On the technique in general: Caco-2 monolayers are a common model of the intestinal barrier.
Data set [21] is described as follows: in vitro. The following applies: human, Caco-2.
For another data set, the target named is Cytochrome P450 3A4 (Homo sapiens, UniProt P08684). The experiment in a line: Inhibition of human CYP3A4. The class given is ADME.
Cytochrome P450 3A4, sequence (P08684 whole entry): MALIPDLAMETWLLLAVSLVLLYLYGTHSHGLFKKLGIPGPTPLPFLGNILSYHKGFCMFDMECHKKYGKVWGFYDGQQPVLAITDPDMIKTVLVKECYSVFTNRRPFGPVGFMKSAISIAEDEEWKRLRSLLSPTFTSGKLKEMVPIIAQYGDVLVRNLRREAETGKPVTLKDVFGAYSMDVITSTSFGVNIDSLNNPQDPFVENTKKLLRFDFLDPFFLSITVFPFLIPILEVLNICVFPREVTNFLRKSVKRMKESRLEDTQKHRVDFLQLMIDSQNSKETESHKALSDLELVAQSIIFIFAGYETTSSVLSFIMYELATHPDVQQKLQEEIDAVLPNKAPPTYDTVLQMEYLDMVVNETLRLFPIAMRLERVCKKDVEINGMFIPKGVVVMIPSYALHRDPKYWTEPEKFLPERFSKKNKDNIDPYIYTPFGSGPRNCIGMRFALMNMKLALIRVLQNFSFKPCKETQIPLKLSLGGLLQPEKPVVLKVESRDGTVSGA
The species entered for data set [22] is Rattus norvegicus. Description: Toxicity in rat assessed as change in connective tissue after 28 days. The class given is organism-based. Conditions: in vivo, 672 h.
A short description of data set [23]: Oral bioavailability in rat at 5 mg/kg. The class given is ADME, organism-based. The following applies: in vivo.
Another data set has as its system Salmonella typhimurium. The experiment in a line: Mutagenic activity in Salmonella typhimurium by Ames assay. The class given is toxicity, organism-based. Conditions: salmonella enterica subsp. enterica serovar typhimurium.
Data set [24] concerns the target Matrix metalloproteinase-14 (Homo sapiens, UniProt P50281).
The next data set addresses Cytochrome P450 2D6 (Homo sapiens, UniProt P10635). Description: Inhibition of human CYP2D6. The class given is ADME.
Data set [25] can be described thus: Clearance in dog at 0.5 mg/kg, iv and 1 mg/kg, po. The following applies: in vivo. The class given is ADME, organism-based, Canis lupus familiaris.
A short description of data set [26]: Intrinsic clearance in dog liver microsomes. The class given is ADME, Canis lupus familiaris, Microsome. Conditions: read-out: CLH. A general note: Liver microsomes are a subcellular fraction often used to study metabolism.
Data set [27] has as its target Macrophage metalloelastase (Homo sapiens, UniProt P39900). The experiment in a line: Inhibition of MMP-12 (unknown origin) by fluorescence assay.
Data set [28] can be described thus: Intrinsic clearance in rat liver microsomes. Type of data set: ADME, Microsome. Conditions: read-out: CLH.

Cytochrome P450 2D6, sequence (P10635 whole entry): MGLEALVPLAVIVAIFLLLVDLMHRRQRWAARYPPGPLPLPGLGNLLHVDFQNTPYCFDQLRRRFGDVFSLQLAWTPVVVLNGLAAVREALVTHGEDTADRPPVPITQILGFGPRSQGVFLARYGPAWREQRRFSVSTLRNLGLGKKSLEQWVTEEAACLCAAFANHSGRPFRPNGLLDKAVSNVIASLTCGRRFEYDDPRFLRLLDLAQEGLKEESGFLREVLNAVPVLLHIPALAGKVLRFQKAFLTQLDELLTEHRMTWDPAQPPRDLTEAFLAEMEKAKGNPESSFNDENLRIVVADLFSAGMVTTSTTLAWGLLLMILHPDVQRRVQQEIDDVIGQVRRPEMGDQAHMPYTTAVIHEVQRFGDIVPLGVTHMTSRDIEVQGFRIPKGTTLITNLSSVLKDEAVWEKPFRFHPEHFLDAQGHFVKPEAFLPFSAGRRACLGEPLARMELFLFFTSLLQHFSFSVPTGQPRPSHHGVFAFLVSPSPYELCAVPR
Cytochrome P450 2C9, sequence (P11712 whole entry): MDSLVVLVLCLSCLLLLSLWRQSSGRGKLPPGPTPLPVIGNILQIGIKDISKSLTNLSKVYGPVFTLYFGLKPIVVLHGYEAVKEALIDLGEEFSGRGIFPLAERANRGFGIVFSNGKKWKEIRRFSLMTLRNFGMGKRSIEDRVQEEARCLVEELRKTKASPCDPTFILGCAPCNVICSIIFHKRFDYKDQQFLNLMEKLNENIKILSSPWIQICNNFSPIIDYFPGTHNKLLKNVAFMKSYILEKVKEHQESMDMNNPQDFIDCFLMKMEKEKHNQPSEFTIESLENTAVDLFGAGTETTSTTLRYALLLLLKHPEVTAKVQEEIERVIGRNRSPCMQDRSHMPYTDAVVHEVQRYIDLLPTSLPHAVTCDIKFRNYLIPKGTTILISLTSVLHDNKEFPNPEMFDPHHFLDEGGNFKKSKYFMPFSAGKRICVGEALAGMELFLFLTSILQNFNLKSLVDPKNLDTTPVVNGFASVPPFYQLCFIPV
Macrophage metalloelastase, sequence (P39900 whole entry): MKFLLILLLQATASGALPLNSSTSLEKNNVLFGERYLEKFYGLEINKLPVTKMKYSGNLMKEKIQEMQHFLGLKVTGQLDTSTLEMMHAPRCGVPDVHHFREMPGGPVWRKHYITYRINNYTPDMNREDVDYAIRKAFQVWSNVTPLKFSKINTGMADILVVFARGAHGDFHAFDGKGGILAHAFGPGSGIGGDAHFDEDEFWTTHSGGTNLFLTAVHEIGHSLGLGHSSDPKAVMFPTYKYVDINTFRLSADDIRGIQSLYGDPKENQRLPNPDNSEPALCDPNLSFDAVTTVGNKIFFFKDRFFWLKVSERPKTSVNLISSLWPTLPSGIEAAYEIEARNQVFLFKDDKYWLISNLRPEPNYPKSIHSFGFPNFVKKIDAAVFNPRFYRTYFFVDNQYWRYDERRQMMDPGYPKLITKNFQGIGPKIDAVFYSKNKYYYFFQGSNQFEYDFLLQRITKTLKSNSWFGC

On to `C[C@]1(CS(=O)(=O)N2CCC(Oc3ccc(OC(F)(F)C(F)F)cc3)CC2)NC(=O)NC1=O`, for which the IC50 against Cytochrome P450 2C19 was more than 10 µM; at Cytochrome P450 1A2, more than 10 µM; against Cytochrome P450 2C9, more than 10 µM; against Cytochrome P450 3A4, more than 10 µM; in data set [24] it was 2.22 µM; against Cytochrome P450 2D6, more than 10 µM. Also, the Activity entry (in the data set filed under Rattus norvegicus [1]; in the data set listed under Rattus norvegicus [2]; in data set [3]; in the data set filed under Rattus norvegicus [6]; in the data set filed under Rattus norvegicus [8]; in the data set filed under Rattus norvegicus [19]) was “Non-toxic” in each case. In addition, the Activity result in the data set listed under Rattus norvegicus [22] and in the data set on Salmonella typhimurium was “Non-toxic” each time. For the same molecule, the half-life was 16 h in data set [4] and 35 h in [12]. Moreover, the fraction unbound in data set [5] stood at 0.03; in data set [13], 0.05; in data set [14] it was 0.05. For the same molecule, the concentration in solution in data set [7] (solubility) came to 14.9 µM (≈ 7.2 µg/mL). For the same molecule, the values for the clearance in data set [9] and in data set [25] were 0.4 mL/min/kg and 0.2 mL/min/kg, respectively. Further, the solubility thermodynamic at 24 h in [10] was found to be 6.8 µM (≈ 3.29 µg/mL). Moreover, the hepatocyte CLint in [11] was less than 2 µL/min/1e6 cells. For the same molecule, the Vd in data set [15] and in data set [18] was 0.6 L/kg each time. In the data set filed under Cavia porcellus, the inhibition in vivo at 11 mg/kg/day turned out to be 104%. Also, the bioavailability in data set [16] worked out at 40%; in data set [23] it was 64%. The same molecule returned a microsomal CLint in “in vitro [17]” of less than 2 µL/min/mg. For the same molecule, in “physchem”, the logD was found to be 2. In addition, the Papp B→A at 10 µM in [20] was 52 ×10⁻⁶ cm/s. The molecule also gave a Papp A→B at 10 µM in the data set “in vitro [21]” of 21 ×10⁻⁶ cm/s.

Turning to `C[C@]1(CS(=O)(=O)N2CCC(Oc3ccc(C(F)(F)F)cc3)CC2)NC(=O)NC1=O`, the IC50 against Cytochrome P450 2C19 was more than 40 µM; against Cytochrome P450 1A2, more than 40 µM; on Cytochrome P450 2C9, more than 40 µM; in [27] it was 0.0059 µM; at Cytochrome P450 3A4, more than 40 µM; against Cytochrome P450 2D6, more than 40 µM. Also, in [10], the solubility thermodynamic at 24 h came out at 23 µM (≈ 10 µg/mL). Moreover, the microsomal CLint (in the data set “in vitro [17]”; in data set [26]; in data set [28]) was less than 10 µL/min/mg in each case.

The record behind these values is ChEMBL document CHEMBL2407043, “Hydantoin based inhibitors of MMP13--discovery of AZD6605” (Bioorg Med Chem Lett, 2013).
